Data as given in patent US20190358286A1, “METHODS FOR THE PREVENTION OR TREATMENT OF LEFT VENTRICLE REMODELING” (Stealth BioTherapeutics Corp., priority 2013, published 2019).
Non-standard residues stand in square brackets, D forms with d. Residues, ends and D or L forms follow the SMILES beside them. Dmt = Cc1cc(O)cc(C)c1C[C@H](N)C(=O)O

Columns and labels:
[1] = test system: several mammalian cell types; conditions: energy-independent manner; cited from earlier work
[2] = test system: rats with permanent coronary artery occlusion; experiment: Deaths during 6 weeks treatment; type: in vivo, rat; conditions: 74 rats randomized to peptide or water
Method: Rats were anesthetized, ventilated, and a thoracotomy performed in the left 4th intercostal space. Temperature was maintained at 36° C. by placing the rats on a heating pad during the procedure. The pericardium was excised and the proximal left coronary artery isolated and permanently occluded with a suture. Coronary artery occlusion was confirmed by cyanosis and akinesis of the anterior wall of the ventricle. The chest was closed, air evacuated, and the rats allowed to recover. Analgesia was administered per the veterinarian. An echocardiogram was obtained at approximately 15 minutes post coronary artery occlusion. At 2 hours rats were randomized to receive chronic daily D-Arg-2′,6′-Dmt-Lys-Phe-NH2 (delivered subcutaneously by an Alzet Osmotic Pump—3 mg/kg/day) or water. […] Heart rate and blood pressure were measured. A Millar catheter was inserted into the left ventricle and LV systolic pressure, LV end diastolic pressure, +dP/dt, and −dP/dt were measured. […] Postmortem left ventricle volume was measured by filling the LV cavity with fluid and measuring the total fluid. […] Quantitative histologic analysis included: total circumference, scar circumference, non-infarcted wall circumference, total LV area, total LV cavity area, LV wall thickness (at several points), non-infarcted wall thickness; myocardial infarct expansion index. […]

2′,6′-Dmt-D-Arg-Phe-Lys-NH2
penetration of the plasma membrane [1]: readily penetrates

Cc1cc(O)cc(C)c1C[C@H](NC(=O)[C@H](N)CCCNC(=N)N)C(=O)N[C@@H](CCCCN)C(=O)N[C@@H](Cc1ccccc1)C(N)=O [D-Arg-2′,6′-Dmt-Lys-Phe-NH2] (H-[dR][Dmt]KF-NH2)
deaths during the 6 weeks treatment [2]: no rats died
